Source: patent US8748452B2, “Indolizine derivative and use thereof for medical purposes” (Kissei Pharmaceutical Co., Ltd., priority 2009, dated 2014)
pIC50: −log10 of the molar value.

Target: T1, Xanthine oxidase (from bovine milk, Sigma) (Bos taurus, UniProt P80457)
T1 construct: Xanthine oxidase (from bovine milk, Sigma); purchased Sigma; host or cells: bovine milk
Test: Xanthine oxidase inhibitory activity
Assay type: biochemical
Conditions: xanthine oxidase from bovine milk 0.02 units/mL, xanthine 200 μM, 10 minutes at room temperature, absorbance at 290 nm
Procedure: (1) Preparation of test compounds
Test compounds were dissolved in DMSO (Wako pure chemical) at 40 mM concentration and then diluted to intended concentrations with phosphate-buffered saline (PBS).
(2) Method for measurement
Xanthine oxidase (from bovine milk, Sigma) was prepared with phosphate-buffered saline (PBS) at 0.02 units/mL, and then the solution was added to 96 well plates at 50 μL/well. In addition, test compounds diluted with PBS were added at 50 μL/well. Xanthine (Wako pure chemical) at 200 μM prepared with PBS was added at 100 μL/well, and the mixture was reacted for 10 minutes at room temperature. Absorbance at 290 nm was measured using a microplate reader SpectraMax Plus 384 (Molecular device). The absorbance under a condition without xanthine is 0%, and control without test compounds is 100%. Fifty % inhibitory concentration (IC50) of test compounds was calculated (Table 17). Ex. No. in the table indicates Example number.

T1 sequence (P80457 whole entry): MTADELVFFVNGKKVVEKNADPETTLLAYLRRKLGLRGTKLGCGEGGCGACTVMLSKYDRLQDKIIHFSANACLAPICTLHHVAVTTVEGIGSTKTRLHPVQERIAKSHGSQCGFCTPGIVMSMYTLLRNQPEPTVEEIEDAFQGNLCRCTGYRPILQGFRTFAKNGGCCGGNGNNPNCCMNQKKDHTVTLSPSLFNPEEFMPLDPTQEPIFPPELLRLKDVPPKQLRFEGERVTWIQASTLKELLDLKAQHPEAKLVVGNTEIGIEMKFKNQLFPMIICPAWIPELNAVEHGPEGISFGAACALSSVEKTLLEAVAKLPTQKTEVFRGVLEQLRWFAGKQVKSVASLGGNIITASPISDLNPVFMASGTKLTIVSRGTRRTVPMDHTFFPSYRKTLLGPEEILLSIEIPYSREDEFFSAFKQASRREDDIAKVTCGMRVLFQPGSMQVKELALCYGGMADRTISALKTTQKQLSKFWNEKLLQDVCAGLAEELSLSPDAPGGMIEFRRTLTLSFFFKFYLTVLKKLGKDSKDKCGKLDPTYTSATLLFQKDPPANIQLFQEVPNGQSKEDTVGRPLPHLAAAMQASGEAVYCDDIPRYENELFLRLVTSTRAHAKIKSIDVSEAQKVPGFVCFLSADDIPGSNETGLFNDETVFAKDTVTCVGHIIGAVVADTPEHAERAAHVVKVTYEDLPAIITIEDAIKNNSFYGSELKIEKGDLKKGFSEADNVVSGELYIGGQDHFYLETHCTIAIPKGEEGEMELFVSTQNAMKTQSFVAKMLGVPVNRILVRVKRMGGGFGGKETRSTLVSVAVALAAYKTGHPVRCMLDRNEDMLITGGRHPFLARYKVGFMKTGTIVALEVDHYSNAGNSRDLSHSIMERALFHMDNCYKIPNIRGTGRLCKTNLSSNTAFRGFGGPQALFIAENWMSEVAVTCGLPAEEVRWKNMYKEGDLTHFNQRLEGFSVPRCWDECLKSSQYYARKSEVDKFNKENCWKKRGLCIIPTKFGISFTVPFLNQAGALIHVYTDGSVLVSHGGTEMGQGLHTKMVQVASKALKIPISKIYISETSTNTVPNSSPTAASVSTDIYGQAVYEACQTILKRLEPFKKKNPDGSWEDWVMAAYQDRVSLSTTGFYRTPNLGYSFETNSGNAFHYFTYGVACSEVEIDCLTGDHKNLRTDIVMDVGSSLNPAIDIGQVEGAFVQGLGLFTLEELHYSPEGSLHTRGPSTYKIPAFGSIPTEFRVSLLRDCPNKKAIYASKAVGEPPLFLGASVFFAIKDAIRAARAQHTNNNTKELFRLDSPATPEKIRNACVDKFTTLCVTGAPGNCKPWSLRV

Compound | pIC50
N#Cc1cc(-c2ccc(C(=O)O)cc2)n2ccccc12 [Example 1, 4-(1-Cyanoindolizine-3-yl) benzoic acid] | 8.15
Cc1cccn2c(-c3ccc(C(=O)O)cc3)cc(C#N)c12 [Example 4] | 8.15
Cc1cc(C)c2c(C#N)cc(-c3ccc(C(=O)O)cc3)n2c1 [Example 6] | 8.05
Cc1ccn2c(-c3ccc(C(=O)O)cc3)cc(C#N)c2c1F [Example 7] | 8.30
N#Cc1cc(-c2ccc(C(=O)O)cc2)n2ccc3c(c12)CCCC3 [Example 9] | 8.52
CCc1ccn2c(-c3ccc(C(=O)O)cc3)cc(C#N)c2c1 [Example 10] | 8.10
CCc1cccn2c(-c3ccc(C(=O)O)cc3)cc(C#N)c12 [Example 11] | 8.40
N#Cc1cc(-c2ccc(C(=O)O)cc2)n2cccc(F)c12 [Example 13] | 8.05
N#Cc1cc(-c2ccc(C(=O)O)c(O)c2)n2ccccc12 [Example 17, 4-(1-Cyanoindolizine-3-yl)-2-hydroxybenzoic acid] | 8.40
Cc1cccn2c(-c3ccc(C(=O)O)c(O)c3)cc(C#N)c12 [Example 19] | 8.52
N#Cc1cc(-c2ccc(C(=O)O)c(O)c2)n2ccc(C(F)(F)F)cc12 [Example 27] | 8.30
N#Cc1cc(-c2ccc(C(=O)O)s2)n2ccccc12 [Example 28] | 8.52
Cc1c(Cl)ccn2c(-c3ccc(C(=O)O)cc3)cc(C#N)c12 [Example 39] | 8.10
COc1cccn2c(-c3ccc(C(=O)O)cc3)cc(C#N)c12 [Example 41] | 8.30
COc1ccn2c(-c3ccc(C(=O)O)cc3)cc(C#N)c2c1 [Example 45] | 8.30
COc1cc2c(C#N)cc(-c3ccc(C(=O)O)cc3)n2cc1C [Example 46] | 8.10
N#Cc1cc(-c2ccc(C(=O)O)c(O)c2)n2cc(F)c(C(F)(F)F)cc12 [Example 48] | 8.22
Cc1ccn2c(-c3ccc(C(=O)O)c(O)c3)cc(C#N)c2c1Cl [Example 50] | 8.70
Cc1ccn2c(-c3ccc(C(=O)O)c(O)c3)cc(C#N)c2c1C [Example 51] | 8.30
CC(C)(C)c1ccn2c(-c3ccc(C(=O)O)c(O)c3)cc(C#N)c2c1 [Example 56] | 8.70
COc1ccn2c(-c3ccc(C(=O)O)c(O)c3)cc(C#N)c2c1 [Example 58] | 8.70
N#Cc1c(F)c(-c2ccc(C(=O)O)cc2)n2ccccc12 [Example 61, 4-(1-Cyano-2-fluoroindolizine-3-yl) benzoic acid] | 7.17
N#Cc1c(F)c(-c2ccc(C(=O)O)c(O)c2)n2ccccc12 [Example 62, 4-(1-Cyano-2-fluoroindolizine-3-yl)-2-hydroxybenzoic acid] | 8.40
N#Cc1cc(-c2ccc(C(=O)O)c(O)c2)n2ccc(CF)cc12 [Example 63, 4-(1-Cyano-7-fluoromethylindolizine-3-yl)-2-hydroxybenzoic acid] | 8.10
N#Cc1cc(-c2ccc(C(=O)O)cc2)n2ccc(Br)cc12 [Example 64] | 8.10
N#Cc1cc(-c2cnc(C(=O)O)c(O)c2)n2ccccc12 [Example 65] | 8.10
Cc1ccn2c(-c3cnc(C(=O)O)c(O)c3)cc(C#N)c2c1F [Example 67] | 8.70

Continued by rising pIC50, values first:

pIC50 | Compound
7.52 | N#Cc1cc(-c2ccc(C(=O)O)c(F)c2)n2ccccc12 [Example 33]
7.70 | Cc1nc(-c2cc(C#N)c3ccccn23)sc1C(=O)O [Example 71]
7.74 | N#Cc1cc(-c2ccc(C(=O)O)cc2)n2cc(F)ccc12 [Example 14]
7.74 | N#Cc1cc(-c2ccc(C(=O)O)nc2)n2ccccc12 [Example 70]
7.82 | COc1cc2c(C#N)cc(-c3ccc(C(=O)O)c(O)c3)n2cc1C [Example 60]
7.96 | CCc1ccc2c(C#N)cc(-c3ccc(C(=O)O)cc3)n2c1 [Example 12]
8.00 | N#Cc1cc(-c2ccc(C(=O)O)cc2)n2ccc(C(F)(F)F)cc12 [Example 15]
8.00 | Cc1ccn2c(-c3ccc(C(=O)O)c(F)c3)cc(C#N)c2c1F [Example 34]
8.00 | CN(C)c1ccn2c(-c3ccc(C(=O)O)c(O)c3)cc(C#N)c2c1 [Example 59]
8.10 | N#Cc1cc(-c2ccc(C(=O)O)c(N)c2)n2ccccc12 [Example 30, 2-Amino-4-(1-cyanoindolizine-3-yl) benzoic acid]
8.10 | Cc1cc2c(C#N)cc(-c3ccc(C(=O)O)cc3)n2cc1Cl [Example 36]
8.22 | N#Cc1cc(-c2ccc(C(=O)O)cc2)n2cccc(Cl)c12 [Example 3]
8.22 | CCc1cccn2c(-c3ccc(C(=O)O)c(O)c3)cc(C#N)c12 [Example 24]
8.30 | Cc1ccc2c(C#N)cc(-c3ccc(C(=O)O)c(O)c3)n2c1 [Example 20]
8.30 | N#Cc1cc(-c2ccc(C(=O)O)c(O)c2)n2cccc(F)c12 [Example 25]
8.30 | Cc1ccn2c(-c3ccc(C(=O)O)cc3)cc(C#N)c2c1C [Example 38]
8.40 | Cc1ccn2c(-c3ccc(C(=O)O)cc3)cc(C#N)c2c1 [Example 2]
8.40 | Cc1cc(C)c2c(C#N)cc(-c3ccc(C(=O)O)c(O)c3)n2c1 [Example 21]
8.40 | Cc1ccn2c(-c3ccc(C(=O)O)cc3)cc(C#N)c2c1Cl [Example 37]
8.40 | CC(C)c1ccn2c(-c3ccc(C(=O)O)cc3)cc(C#N)c2c1 [Example 42]
8.40 | N#Cc1cc(-c2ccc(C(=O)O)c(O)c2)n2ccc(-c3cnco3)cc12 [Example 57]
8.52 | Cc1ccn2c(-c3ccc(C(=O)O)c(O)c3)cc(C#N)c2c1F [Example 23]
8.52 | CC(C)(O)c1ccn2c(-c3ccc(C(=O)O)cc3)cc(C#N)c2c1 [Example 44]
8.52 | CC(=O)c1ccn2c(-c3ccc(C(=O)O)c(O)c3)cc(C#N)c2c1 [Example 53]
8.52 | N#Cc1ccn2c(-c3ccc(C(=O)O)c(O)c3)cc(C#N)c2c1 [Example 54]
8.70 | CC(C)(C)c1ccn2c(-c3ccc(C(=O)O)cc3)cc(C#N)c2c1 [Example 43]
8.70 | CC(C)Oc1ccn2c(-c3ccc(C(=O)O)cc3)cc(C#N)c2c1C(F)(F)F [Example 47, 4-(1-Cyano-7-isopropoxy-8-trifluoromethylindolizine-3-yl) benzoic acid]
8.70 | Cc1cc2c(C#N)cc(-c3ccc(C(=O)O)c(O)c3)n2cc1Cl [Example 49]
8.70 | Cc1c(Cl)ccn2c(-c3ccc(C(=O)O)c(O)c3)cc(C#N)c12 [Example 52]
8.70 | Cc1ccn2c(-c3cnc(C(=O)O)c(O)c3)cc(C#N)c2c1 [Example 66]

Tested on: male CD (SD) IGS rats
Test: Serum hypouricemic effect
Assay type: in vivo
Conditions: Rattus norvegicus; 1 mg/kg oral gavage, overnight fasted male rats, serum at 2 hours after administration; read-out: percent decrease in uric acid
Procedure: Test compounds at 1 mg/kg suspended in 0.5% methylcellulose solution were administered by oral gavage administration to overnight fasted male CD (SD) IGS rats (5-week-old, Charls River Japan). At 2 hours after administration, blood was collected under ether anesthesia from abdominal aorta, and serum was separated according to general method. Serum uric acid values were determined by use of uric acid measurement kit (Uric acid C-Test Wako: Wako pure chemical), and percent decrease in uric acid was calculated according to the formula described below. As a result, it was shown that compounds of Examples 2, 7, 10, 22, 23, 25, 37, 49, 50 and 58 have over 60% percent decrease in uric acid.
Percent decrease in uric acid (%)=(Serum uric acid values in control animals−Serum uric acid values in animals administered test compounds)×100/Serum uric acid values in control animals

Compound | inhibition in vivo at 1 mg/kg [%]
Cc1ccn2c(-c3ccc(C(=O)O)cc3)cc(C#N)c2c1 [Example 2] | > 60
Cc1ccn2c(-c3ccc(C(=O)O)cc3)cc(C#N)c2c1F [Example 7] | > 60
CCc1ccn2c(-c3ccc(C(=O)O)cc3)cc(C#N)c2c1 [Example 10] | > 60
Cc1ccn2c(-c3ccc(C(=O)O)c(O)c3)cc(C#N)c2c1F [Example 23] | > 60
N#Cc1cc(-c2ccc(C(=O)O)c(O)c2)n2cccc(F)c12 [Example 25] | > 60
Cc1ccn2c(-c3ccc(C(=O)O)cc3)cc(C#N)c2c1Cl [Example 37] | > 60
Cc1cc2c(C#N)cc(-c3ccc(C(=O)O)c(O)c3)n2cc1Cl [Example 49] | > 60
Cc1ccn2c(-c3ccc(C(=O)O)c(O)c3)cc(C#N)c2c1Cl [Example 50] | > 60
COc1ccn2c(-c3ccc(C(=O)O)c(O)c3)cc(C#N)c2c1 [Example 58] | > 60
